# Source: patent US10835542B2, “9-aminomethyl minocycline compounds and use thereof in treating community-acquired bacterial pneumonia (CABP)” (Paratek Pharmaceuticals, Inc., priority 2016, dated 2020)
# “And” between values parts separate entries of the source, which are not always exact repeats. Equal values may be shown once.
# Legend:
# [1] = tested on: Community-Acquired Bacterial Pneumonia (CABP); assay: Phase 3 CABP study: Investigator's Assessment of Clinical Response at PTE; type: in vivo, human
# Haemophilus influenzae = assay: Clinical success at PTE by baseline pathogen, microITT; type: in vivo, human; conditions: N1 = 32 (Compound 1), 16 (Moxifloxacin)
# [2] = CE-PTE, PORT Risk Class II as randomized
# [3] = CE-PTE, PORT Risk Class III as randomized
# [4] = CE-PTE, PORT Risk Class III/IV as randomized
# [5] = CE-PTE, PORT Risk Class IV as randomized
# [6] = CE-PTE, actual PORT Risk Class II
# [7] = CE-PTE, actual PORT Risk Class III
# [8] = CE-PTE, actual PORT Risk Class III/IV
# [9] = CE-PTE, actual PORT Risk Class IV
# [10] = ITT, PORT Risk Class II as randomized
# [11] = ITT, PORT Risk Class III as randomized
# [12] = ITT, PORT Risk Class III/IV as randomized
# [13] = ITT, PORT Risk Class IV as randomized
# [14] = ITT, actual PORT Risk Class III
# [15] = ITT, actual PORT Risk Class III/IV
smiles,measurement,setting,value
"CN(C)c1cc(CNCC(C)(C)C)c(O)c2c1C[C@H]1C[C@H]3[C@H](N(C)C)C(O)=C(C(N)=O)C(=O)[C@@]3(O)C(O)=C1C2=O [Compound 1, 9-[(2,2-dimethyl-propylamino)-methyl]-minocycline]","Difference (95% CI) in Overall Clinical Success rate at PTE, Compound 1 minus moxifloxacin",[1]; CE-PTE,"2.5% and 2.5 (−1.7, 6.8) %"
same,Overall clinical response at PTE: Clinical Failure,[1]; CE-PTE,24 (7.1) n (%)
same,Overall clinical response at PTE: Clinical Success,[1]; CE-PTE,316 (92.9) n (%)
same,Clinical Failure at PTE,[1]; [2],3 (6.8) n (%)
same,Clinical Success at PTE,[1]; [2],41 (93.2) n (%)
same,Difference (95% CI) in clinical success at PTE,[1]; [2],"1.5 (−11.2, 13.9)^[4] %"
same,Clinical Failure at PTE,[1]; [3],14 (6.5) n (%)
same,Clinical Success at PTE,[1]; [3],202 (93.5) n (%)
same,Difference (95% CI) in clinical success at PTE,[1]; [3],"2.5 (−2.7, 7.8)^[4] %"
same,Clinical Failure at PTE,[1]; [4],21 (7.1) n (%)
same,Clinical Success at PTE,[1]; [4],275 (92.9) n (%)
same,Difference (95% CI) in clinical success at PTE,[1]; [4],"2.7 (−1.9, 7.3)^[4] %"
same,Clinical Failure at PTE,[1]; [5],7 (8.8) n (%)
same,Clinical Success at PTE,[1]; [5],73 (91.3) n (%)
same,Difference (95% CI) in clinical success at PTE,[1]; [5],"3.0 (−6.8, 12.8)^[4] %"
same,Clinical Failure at PTE,[1]; [6],2 (4.4) n (%)
same,Clinical Success at PTE,[1]; [6],43 (95.6) n (%)
same,Difference (95% CI) in clinical success at PTE,[1]; [6],"5.8 (−6.1, 18.1)^[4] %"
same,Clinical Failure at PTE,[1]; [7],13 (6.4) n (%)
same,Clinical Success at PTE,[1]; [7],191 (93.6) n (%)
same,Difference (95% CI) in clinical success at PTE,[1]; [7],"1.5 (−3.6, 6.9)^[4] %"
same,Clinical Failure at PTE,[1]; [8],22 (7.5) n (%)
same,Clinical Success at PTE,[1]; [8],273 (92.5) n (%)
same,Difference (95% CI) in clinical success at PTE,[1]; [8],"2.0% and 2.0 (−2.6, 6.6)^[4] %"
same,Clinical Failure at PTE,[1]; [9],9 (9.9) n (%)
same,Clinical Success at PTE,[1]; [9],82 (90.1) n (%)
same,Difference (95% CI) in clinical success at PTE,[1]; [9],"2.9 (−6.7, 12.5)^[4] %"
same,"Difference (95% CI) in Overall Clinical Success rate at PTE, Compound 1 minus moxifloxacin",[1]; ITT,"2.5% and 2.5 (−2.4, 7.4) %"
same,Overall clinical response at PTE: Clinical Failure,[1]; ITT,32 (8.3) n (%)
same,Overall clinical response at PTE: Clinical Failure or Indeterminate,[1]; ITT,48 (12.4) n (%)
same,Overall clinical response at PTE: Clinical Success,[1]; ITT,338 (87.6) n (%)
same,Overall clinical response at PTE: Indeterminate,[1]; ITT,16 (4.1) n (%)
same,Clinical Failure at PTE,[1]; [10],6 (10.7) n (%)
same,Clinical Failure or Indeterminate at PTE,[1]; [10],11 (19.6) n (%)
same,Clinical Success at PTE,[1]; [10],45 (80.4) n (%)
same,Difference (95% CI) in clinical success at PTE,[1]; [10],"−3.6 (−18.2, 11.0)^[4] %"
same,Indeterminate at PTE,[1]; [10],5 (8.9) n (%)
same,Clinical Failure at PTE,[1]; [11],17 (7.1) n (%)
same,Clinical Failure or Indeterminate at PTE,[1]; [11],24 (10.0) n (%)
same,Clinical Success at PTE,[1]; [11],217 (90.0) n (%)
same,Difference (95% CI) in clinical success at PTE,[1]; [11],"3.4 (−2.4, 9.4)^[4] %"
same,Indeterminate at PTE,[1]; [11],7 (2.9) n (%)
same,Clinical Failure at PTE,[1]; [12],26 (7.9) n (%)
same,Clinical Failure or Indeterminate at PTE,[1]; [12],37 (11.2) n (%)
same,Clinical Success at PTE,[1]; [12],293 (88.8) n (%)
same,Difference (95% CI) in clinical success at PTE,[1]; [12],"3.5 (−1.6, 8.7)^[4] %"
same,Indeterminate at PTE,[1]; [12],11 (3.3) n (%)
same,Clinical Failure at PTE,[1]; [13],9 (10.1) n (%)
same,Clinical Failure or Indeterminate at PTE,[1]; [13],13 (14.6) n (%)
same,Clinical Success at PTE,[1]; [13],76 (85.4) n (%)
same,Difference (95% CI) in clinical success at PTE,[1]; [13],"3.4 (−7.5, 14.0)^[4] %"
same,Indeterminate at PTE,[1]; [13],4 (4.5) n (%)
same,Clinical Failure at PTE,"[1]; ITT, actual PORT Risk Class II",5 (8.8) n (%)
same,Clinical Failure or Indeterminate at PTE,"[1]; ITT, actual PORT Risk Class II",10 (17.5) n (%)
same,Clinical Success at PTE,"[1]; ITT, actual PORT Risk Class II",47 (82.5) n (%)
same,Difference (95% CI) in clinical success at PTE,"[1]; ITT, actual PORT Risk Class II","−1.5 (−15.7, 12.8)^[4] %"
same,Indeterminate at PTE,"[1]; ITT, actual PORT Risk Class II",5 (8.8) n (%)
same,Clinical Failure at PTE,[1]; [14],16 (7.0) n (%)
same,Clinical Failure or Indeterminate at PTE,[1]; [14],21 (9.3) n (%)
same,Clinical Success at PTE,[1]; [14],206 (90.7) n (%)
same,Difference (95% CI) in clinical success at PTE,[1]; [14],"2.8 (−3.0, 8.7)^[4] %"
same,Indeterminate at PTE,[1]; [14],5 (2.2) n (%)
same,Clinical Failure at PTE,[1]; [15],27 (8.2) n (%)
same,Clinical Failure or Indeterminate at PTE,[1]; [15],38 (11.6) n (%)
same,Clinical Success at PTE,[1]; [15],291 (88.4) n (%)
same,Difference (95% CI) in clinical success at PTE,[1]; [15],"3.3% and 3.3 (−1.9, 8.5)^[4] %"
same,Indeterminate at PTE,[1]; [15],11 (3.3) n (%)
same,Clinical Failure at PTE,"[1]; ITT, actual PORT Risk Class IV",11 (10.8) n (%)
same,Clinical Failure or Indeterminate at PTE,"[1]; ITT, actual PORT Risk Class IV",17 (16.7) n (%)
same,Clinical Success at PTE,"[1]; ITT, actual PORT Risk Class IV",85 (83.3) n (%)
same,Indeterminate at PTE,"[1]; ITT, actual PORT Risk Class IV",6 (5.9) n (%)
same,Clinical Success n (%),Haemophilus influenzae,26 (81.3) n (%)
